The subject of one experiment is β-catenin/Tcf-4. The experiment can be described thus: cells. Format: cell-based. The settings on record: Homo sapiens, 24 hours of incubation with compound, ratio Firefly/Renilla luciferase. In short, it runs like this:
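SW480-derived lines with integrated reporters (Tcf-4-driven firefly luciferase; SV40 firefly as specificity control; SV40 Renilla for cell number/toxicity), treated 24 hours with titrated compounds, final 0.316% DMSO. Dual-luciferase read-out; firefly/Renilla ratio as % of control, duplicate plates, IC50 (nM) from curve fit.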

In the next experiment the test system is SV40-Luc. As to the kind of experiment: SV40-Luc control luciferase reporter assay, SV 5A8 cell line (SV40-Luc and SV40-R-Luc), control for non-specific inhibitors. Format: cell-based, human. The settings on record: Homo sapiens, SV5A8, 24 h, SV 5A8 cells derived from SW480; 24 hours of incubation with compound; ratio Firefly/Renilla luciferase. The method in brief:
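Compound exposure lasted 24 h, starting 20-24 h after seeding 1×10^4 cells/well, with titrated doses and 0.316% final DMSO. Readout was dual firefly/Renilla luminescence; Renilla under an SV40 promoter corrects for cell number and toxicity, and SV 5A8 (SV40 firefly) flags non-specific inhibitors versus Tcf-4-driven lines 33.13 and 22C11. IC50s came from the F/R ratio (% of control).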
(In general: Reporter assays use an easily measured gene product as a stand-in for the process of interest.)

The mark [1] stands for this setting: SW480, 24 h, Tcf 33.13 cells derived from SW480.
[2] abbreviates: Tcf22C11, 24 h, Tcf 22C11 cells derived from SW480.

Take `C/C=C/c1ccc2c(N[C@@H](C)c3ccc(NC(=O)c4ccc(Cl)nc4)cc3)nc(N(C)C)nc2c1` [Example 107, 6-chloro-N-{4-[(1S)-1-({2-(dimethylamino)-7-[(1E)-prop-1-en-1-yl]quinazolin-4-yl}amino)ethyl]phenyl}nicotinamide]: the results for the IC50 with β-catenin/Tcf-4 (setting [1]), in the experiment with β-catenin/Tcf-4 (setting [2]) and in the experiment with SV40-Luc were 336 nM, 414 nM and above 4780 nM, respectively.

Take `C#Cc1ccc2c(NCc3ccc(NC(=O)c4ccc(F)cc4)cc3)nc(N(C)C)nc2c1` [Example 108, N-[4-({[2-(dimethylamino)-7-ethynylquinazolin-4-yl]amino}methyl)phenyl]-4-fluorobenzamide]: the IC50 with β-catenin/Tcf-4 (setting [1]) was 236 nM; in the experiment with β-catenin/Tcf-4 (setting [2]), 508 nM; with SV40-Luc, above 5250 nM.

With `CN(C)c1nc(NCc2ccc(NC(=O)c3ccc(Cl)nc3)cc2)c2ccc(I)cc2n1` [Example 110, 6-chloro-N-[4-({[2-(dimethylamino)-7-iodoquinazolin-4-yl]amino}methyl)phenyl]nicotinamide], the values for the IC50 in the experiment with β-catenin/Tcf-4 (setting [1]), with β-catenin/Tcf-4 (setting [2]) and in the experiment on SV40-Luc were 1190 nM, 1760 nM and above 16800 nM, respectively.

Consider `C=Cc1ccc2c(NCc3ccc(NC(=O)c4ccc(Cl)nc4)cc3)nc(N(C)C)nc2c1` [Example 111, 6-chloro-N-[4-({[2-(dimethylamino)-7-vinylquinazolin-4-yl]amino}methyl)phenyl]nicotinamide], for which the values for the IC50 with β-catenin/Tcf-4 (setting [1]), in the experiment with β-catenin/Tcf-4 (setting [2]) and with SV40-Luc were 181 nM, 238 nM and above 2520 nM, respectively.

`C/C=C/c1ccc2c(NCc3ccc(NC(=O)c4ccc(Cl)nc4)cc3)nc(N(C)C)nc2c1` [Example 112, 6-chloro-N-{4-[({2-(dimethylamino)-7-[(1E)-prop-1-en-1-yl]quinazolin-4-yl}amino)methyl]phenyl}nicotinamide]: the IC50 in the experiment on β-catenin/Tcf-4 (setting [1]) was 118 nM; in the experiment on β-catenin/Tcf-4 (setting [2]), 249 nM; in the experiment with SV40-Luc it was above 4910 nM.

For `CN(C)c1nc(NCc2ccc(NC(=O)c3ccc(F)cc3)cc2)c2ccccc2n1` [Example 113, N-[4-({[2-(dimethylamino)quinazolin-4-yl]amino}methyl)phenyl]-4-fluorobenzamide], the IC50 is 766 nM with β-catenin/Tcf-4 (setting [1]), 1490 nM in the experiment on β-catenin/Tcf-4 (setting [2]) and above 3010 nM with SV40-Luc.

On to `O=C(Nc1ccc(CNc2nc(NC3CCC3)nc3ccccc23)cc1)c1ccc(F)cc1` [Example 115, N-[4-({[2-(cyclobutylamino)quinazolin-4-yl]amino}methyl)phenyl]-4-fluorobenzamide], for which the half-maximal inhibitory concentration (IC50) is 991 nM in the experiment with β-catenin/Tcf-4 (setting [1]), 1380 nM in the experiment on β-catenin/Tcf-4 (setting [2]) and above 2830 nM in the experiment on SV40-Luc.

Turning to `CN1CCN(c2nc(NCc3ccc(NC(=O)c4ccc(F)cc4)cc3)c3ccccc3n2)CC1` [Example 116, 4-fluoro-N-[4-({[2-(4-methylpiperazin-1-yl)quinazolin-4-yl]amino}methyl)phenyl]benzamide], the concentration for half-maximal inhibition (IC50) is 3040 nM with β-catenin/Tcf-4 (setting [1]), 3440 nM with β-catenin/Tcf-4 (setting [2]) and above 21300 nM in the experiment on SV40-Luc.

For the compound `O=C(Nc1ccc(CNc2nc(N3CCOCC3)nc3ccccc23)cc1)c1ccc(F)cc1` [Example 117, 4-fluoro-N-(4-{[(2-morpholin-4-ylquinazolin-4-yl)amino]methyl}phenyl)benzamide], the figures for the IC50 with β-catenin/Tcf-4 (setting [1]), with β-catenin/Tcf-4 (setting [2]) and in the experiment with SV40-Luc were 4480 nM, 7170 nM and above 21900 nM, respectively.

Regarding `CCNc1nc(NCc2ccc(NC(=O)c3ccc(F)cc3)cc2)c2ccccc2n1` [Example 118, N-[4-({[2-(ethylamino)quinazolin-4-yl]amino}methyl)phenyl]-4-fluorobenzamide], the figures for the IC50 in the experiment on β-catenin/Tcf-4 (setting [1]), in the experiment with β-catenin/Tcf-4 (setting [2]) and in the experiment with SV40-Luc were 588 nM, 942 nM and above 3010 nM, respectively.

In the case of `O=C(Nc1ccc(CNc2nc(N3CCCC3)nc3ccccc23)cc1)c1ccc(F)cc1` [Example 119, 4-fluoro-N-(4-{[(2-pyrrolidin-1-ylquinazolin-4-yl)amino]methyl}phenyl)benzamide], the IC50 in the experiment on β-catenin/Tcf-4 (setting [1]) was 1270 nM; with β-catenin/Tcf-4 (setting [2]), 1740 nM; in the experiment on SV40-Luc, above 2830 nM.

`O=C(Nc1ccc(CNc2nc(NC3CCCC3)nc3ccccc23)cc1)c1ccc(F)cc1` [Example 120, N-[4-({[2-(cyclopentylamino)quinazolin-4-yl]amino}methyl)phenyl]-4-fluorobenzamide]: the values for the IC50 in the experiment with β-catenin/Tcf-4 (setting [1]), in the experiment with β-catenin/Tcf-4 (setting [2]) and in the experiment on SV40-Luc were 795 nM, 850 nM and above 1370 nM, respectively.

In the case of `CCN(CC)c1nc(NCc2ccc(NC(=O)c3ccc(F)cc3)cc2)c2ccccc2n1` [Example 122, N-[4-({[2-(diethylamino)quinazolin-4-yl]amino}methyl)phenyl]-4-fluorobenzamide], the results for the IC50 in the experiment on β-catenin/Tcf-4 (setting [1]), in the experiment on β-catenin/Tcf-4 (setting [2]) and in the experiment with SV40-Luc were 1260 nM, 2290 nM and above 11300 nM, respectively.

As to `O=C(Nc1ccc(CNc2nc(N3CCCCC3)nc3ccccc23)cc1)c1ccc(F)cc1` [Example 123, 4-fluoro-N-(4-{[(2-piperidin-1-ylquinazolin-4-yl)amino]methyl}phenyl)benzamide], the IC50 with β-catenin/Tcf-4 (setting [1]) is 2930 nM; in the experiment with β-catenin/Tcf-4 (setting [2]) it was 5850 nM; with SV40-Luc, above 11000 nM.

Consider `O=C(Nc1ccc(CNc2nc(NCc3ccco3)nc3ccccc23)cc1)c1ccc(F)cc1` [Example 124, 4-fluoro-N-{4-[({2-[(2-furylmethyl)amino]quinazolin-4-yl}amino)methyl]phenyl}benzamide], for which the IC50 with β-catenin/Tcf-4 (setting [1]) was 332 nM; in the experiment on β-catenin/Tcf-4 (setting [2]), 674 nM; in the experiment on SV40-Luc, above 1340 nM.

Consider `O=C(Nc1ccc(CNc2nc(NC3CCCCC3)nc3ccccc23)cc1)c1ccc(F)cc1` [Example 125, N-[4-({[2-(cyclohexylamino)quinazolin-4-yl]amino}methyl)phenyl]-4-fluorobenzamide], for which the IC50 with β-catenin/Tcf-4 (setting [1]) is 364 nM; in the experiment on β-catenin/Tcf-4 (setting [2]), 1580 nM; in the experiment with SV40-Luc, above 1330 nM.

On to `O=C(O)CNc1nc(NCc2ccc(NC(=O)c3ccc(F)cc3)cc2)c2ccccc2n1` [Example 127, N-[4-({4-[(4-fluorobenzoyl)amino]benzyl}amino)quinazolin-2-yl]glycine], for which the half-inhibitory concentration (IC50) in the experiment on β-catenin/Tcf-4 (setting [1]), with β-catenin/Tcf-4 (setting [2]) and in the experiment with SV40-Luc was above 22400 nM in each case.

Regarding `CN(C)c1nc(NCc2ccc(NC(=O)c3ccc(Cl)nc3)cc2)c2ccccc2n1` [Example 128, 6-chloro-N-[4-({[2-(dimethylamino)quinazolin-4-yl]amino}methyl)phenyl]nicotinamide], the half-maximal inhibitory concentration (IC50) in the experiment with β-catenin/Tcf-4 (setting [1]) was 708 nM; in the experiment with β-catenin/Tcf-4 (setting [2]) it was 1130 nM; with SV40-Luc it was above 23100 nM.

Consider `Cc1ccc2c(NCc3ccc(NC(=O)C4CCN(Cc5ccccc5)CC4)cc3)nc(N(C)C)nc2c1` [Example 129, 1-benzyl-N-[4-({[2-(dimethylamino)-7-methylquinazolin-4-yl]amino}methyl)phenyl]piperidine-4-carboxamide], for which the IC50 is 754 nM with β-catenin/Tcf-4 (setting [1]), 738 nM in the experiment on β-catenin/Tcf-4 (setting [2]) and above 9170 nM with SV40-Luc.

On to `Cc1ccc2c(NCc3ccc(NC(=O)C4CCN(Cc5ccccc5)CC4)cc3)nc(N3CCC3)nc2c1` [Example 134, N-(4-{[(2-azetidin-1-yl-7-methylquinazolin-4-yl)amino]methyl}phenyl)-1-benzylpiperidine-4-carboxamide], for which the IC50 was 782 nM with β-catenin/Tcf-4 (setting [1]), 805 nM with β-catenin/Tcf-4 (setting [2]) and above 9600 nM in the experiment with SV40-Luc.

Regarding `Cc1ccc2c(NCc3ccc(NC(=O)C4CCN(Cc5ccccc5)CC4)cc3)nc(N3CCC(N4CCCC4)CC3)nc2c1` [Example 135, 1-benzyl-N-[4-({[7-methyl-2-(4-pyrrolidin-1-ylpiperidin-1-yl)quinazolin-4-yl]amino}methyl)phenyl]piperidine-4-carboxamide], the IC50 with β-catenin/Tcf-4 (setting [1]) was 853 nM; in the experiment with β-catenin/Tcf-4 (setting [2]) it was 965 nM; in the experiment with SV40-Luc, above 8090 nM.

Consider `Cc1ccc2c(NCc3ccc(NC(=O)C4CCN(Cc5ccccc5)CC4)cc3)nc(N3CCN(c4ncccn4)CC3)nc2c1` [Example 136, 1-benzyl-N-[4-({[7-methyl-2-(4-pyrimidin-2-ylpiperazin-1-yl)quinazolin-4-yl]amino}methyl)phenyl]piperidine-4-carboxamide], for which the IC50 in the experiment on β-catenin/Tcf-4 (setting [1]) was 365 nM; with β-catenin/Tcf-4 (setting [2]) it was 494 nM; with SV40-Luc it was above 15900 nM.

As for `Cc1ccc2c(NCc3ccc(NC(=O)C4CCN(Cc5ccccc5)CC4)cc3)nc(N3CCNC(CCO)C3)nc2c1` (stereo not drawn) [Example 138, 1-benzyl-N-{4-[({2-[3-(2-hydroxyethyl)piperazin-1-yl]-7-methylquinazolin-4-yl}amino)methyl]phenyl}piperidine-4-carboxamide], the IC50 was 2120 nM with β-catenin/Tcf-4 (setting [1]), 2280 nM in the experiment with β-catenin/Tcf-4 (setting [2]) and above 8420 nM with SV40-Luc.

Take `Cc1ccc2c(NCc3ccc(NC(=O)C4CCN(Cc5ccccc5)CC4)cc3)nc(N(C)CCO)nc2c1` [Example 139, 1-benzyl-N-{4-[({2-[(2-hydroxyethyl)(methyl)amino]-7-methylquinazolin-4-yl}amino)methyl]phenyl}piperidine-4-carboxamide]: the IC50 in the experiment on β-catenin/Tcf-4 (setting [1]) was 1420 nM; with β-catenin/Tcf-4 (setting [2]) it was 1460 nM; in the experiment with SV40-Luc, above 18600 nM.

As for `Cc1ccc2c(NCc3ccc(NC(=O)C4CCN(Cc5ccccc5)CC4)cc3)nc(N(C)CCCN(C)C)nc2c1` [Example 140, 1-benzyl-N-{4-[({2-[[3-(dimethylamino)propyl](methyl)amino]-7-methylquinazolin-4-yl}amino)methyl]phenyl}-piperidine-4-carboxamide], the values for the IC50 in the experiment on β-catenin/Tcf-4 (setting [1]), in the experiment on β-catenin/Tcf-4 (setting [2]) and in the experiment with SV40-Luc were 1320 nM, 1420 nM and above 8620 nM, respectively.

By IC50 is commonly meant the concentration that inhibits the measured activity by half.
